Reference: US6737421B1, “Cyclo-alkyl substituted benzimidazoles and their use as PARP inhibitors” (Abbott GmbH & Co. KG, priority 1999, dated 2004)

Tests used:
[1] = Determination of the solubility in water; format: physicochemical; conditions: adjusted to pH 5-6 with sodium acetate solution, final dimethyl sulfoxide ≦1% if not a water-soluble salt
Procedure: EXAMPLE B Determination of the Solubility in Water […] If the measured substance is not in the form of a water-soluble salt, it was dissolved in the minimum amount of dimethyl sulfoxide and then diluted with water (final dimethyl sulfoxide concentration ≦1%), after which the pH was again adjusted.

[2] = literature report; cited from earlier work

| solubility in water [1] [%] | SMILES | effect in a model of circulatory failure [2] |
| --- | --- | --- |
| < 0.01 | COc1ccc(-c2nc3cccc(C(N)=O)c3[nH]2)cc1 [NU 1076] | – |
| – | NC(=O)c1cccc(N)c1 [3-aminobenzamide] | protective effects |
